In patent publication US7161008B2, “Optically active β-aminoketones, optically active 1,3-amino alcohols and processes for preparing them” (Sanofi - Aventis Deutschland GmbH, priority 2002, dated 2007):

Experiment: Syn/anti-isomerization of the Mannich salt via retro-Mannich/Mannich reaction in DMSO-d6 solution at 300 K, 1H NMR monitoring
Format: physicochemical
Details: for cis-isomer [%] / trans-isomer [%]: DMSO-d6, 300 K, 1H NMR
Procedure: Electron-withdrawing substituents in the aldehyde component of formula (IV) reduced the retro-Mannich tendency. The 1H NMR monitoring of the syn/anti-isomerization of a syn-Mannich salt of formula (III) via retro-Mannich reaction at 300 K in DMSO-d6 solution can be seen in Example 28.
Syn/anti-isomerization of the Mannich base mandelate from […] in DMSO-d^6 solution at 300K. Kinetics and equilibrium location of the retro-Mannich/Mannich reactions:
8 mg of the product from Example 27 were dissolved in DMSO-d^6 as rapidly as possible in a ^1H NMR tube at room temperature. The sample was immediately introduced into the NMR instrument (400 MHz, 300.0 K), shimmed rapidly and analyzed. The first spectrum was obtained 3.5 min after the sample dissolution. […] Further spectra of the solution were each obtained at an interval of 3–4 min. […] The variation can be seen from the graphics and the table of the appendix. 69 min after dissolution of the Mannich salt, the NMR monitoring was aborted at a syn/anti ratio of 50:50. A repeat measurement 20.5 hours after dissolution of the Mannich salt indicated a syn/anti ratio of 41.5:58.5. After a total of 44.5 hours, this ratio was unchanged. The thermodynamic equilibrium of the two isomers is thus achieved in less than 20 h and the anti-isomer is preferred in solution. In contrast, the four-component coupling (Example 27) results in the crystallization of virtually pure syn-isomer, apparently owing to lower solubility. Even the spectrum obtained 3.5 min after sample dissolution indicates (in addition to the syn- and anti-isomers of the Mannich salt) the presence of the retro-Mannich products 2-pyridylmethyl phenyl ketone (formula VI; singlet at δ is 4.53 ppm) and tolylaldehyde (or corresponding imine) (formula IV or X, singlets at δ is 2.40 and 9.12 ppm) in small but significant amounts. The best fitting curve between the measurement points of the graph was obtained by 3rd order polynomial formation.

[1] = 3.5 min after sample dissolution
[2] = 6.5 min after sample dissolution
[3] = 10.5 min after sample dissolution
[4] = 13.5 min after sample dissolution
[5] = 17.5 min after sample dissolution
[6] = 20.5 min after sample dissolution
[7] = 24.5 min after sample dissolution
[8] = 27.5 min after sample dissolution
[9] = 31.5 min after sample dissolution
[10] = 34.5 min after sample dissolution
[11] = 37.5 min after sample dissolution
[12] = 41.5 min after sample dissolution
[13] = 44.5 min after sample dissolution
[14] = 48.5 min after sample dissolution
[15] = 51.5 min after sample dissolution
[16] = 55.5 min after sample dissolution
[17] = 58.5 min after sample dissolution
[18] = 61.5 min after sample dissolution
[19] = 65.5 min after sample dissolution
[20] = 68.5 min after sample dissolution
[21] = 1230 min after sample dissolution
[22] = 2670 min after sample dissolution

Compound: Cc1ccc(C(Nc2ccccn2)C(C(=O)c2ccccc2)c2ccccn2)cc1.O=C(O)C(O)c1ccccc1 (stereo not shown) [Example 27]
- cis-isomer [%] [1]: 95.1%
- trans-isomer [%] [1]: 4.9%
- cis-isomer [%] [2]: 92.5%
- trans-isomer [%] [2]: 7.5%
- cis-isomer [%] [3]: 89.0%
- trans-isomer [%] [3]: 11.0%
- cis-isomer [%] [4]: 85.0%
- trans-isomer [%] [4]: 15.0%
- cis-isomer [%] [5]: 81.7%
- trans-isomer [%] [5]: 18.3%
- cis-isomer [%] [6]: 77.3%
- trans-isomer [%] [6]: 22.7%
- cis-isomer [%] [7]: 76.8%
- trans-isomer [%] [7]: 23.2%
- cis-isomer [%] [8]: 71.8%
- trans-isomer [%] [8]: 28.2%
- cis-isomer [%] [9]: 68.0%
- trans-isomer [%] [9]: 32.0%
- cis-isomer [%] [10]: 66.2%
- trans-isomer [%] [10]: 33.8%
- cis-isomer [%] [11]: 63.8%
- trans-isomer [%] [11]: 36.2%
- cis-isomer [%] [12]: 61.7%
- trans-isomer [%] [12]: 38.3%
- cis-isomer [%] [13]: 60.1%
- trans-isomer [%] [13]: 39.9%
- cis-isomer [%] [14]: 58.7%
- trans-isomer [%] [14]: 41.3%
- cis-isomer [%] [15]: 56.8%
- trans-isomer [%] [15]: 43.2%
- cis-isomer [%] [16]: 54.5%
- trans-isomer [%] [16]: 45.5%
- cis-isomer [%] [17]: 53.6%
- trans-isomer [%] [17]: 46.4%
- cis-isomer [%] [18]: 52.9%
- trans-isomer [%] [18]: 47.1%
- cis-isomer [%] [19]: 52.0%
- trans-isomer [%] [19]: 48.0%
- cis-isomer [%] [20]: 50.5%
- trans-isomer [%] [20]: 49.5%
- cis-isomer [%] [21]: 41.5%
- trans-isomer [%] [21]: 58.5%
- cis-isomer [%] [22]: 41.6%
- trans-isomer [%] [22]: 58.4%
- syn/anti ratio of the Mannich salt in solution, compared with 20.5 hours (DMSO-d6, 300.0 K, after a total of 44.5 hours): unchanged
- time to thermodynamic equilibrium of syn- and anti-isomers (DMSO-d6 solution, 300 K): less than 20 h
